These results are taken from patent publication US5952328A, “Benzothiazo and related heterocyclic group-containing cysteine and serine protease inhibitors” (Cephalon, Inc., priority 1997, dated 1999).

Read-outs that look alike come from different tables or passages of the source.

This test addresses T1, Calpain I (Homo sapiens, UniProt P07384).
T1 construct: made in house
T1 sequence (P07384 1-714): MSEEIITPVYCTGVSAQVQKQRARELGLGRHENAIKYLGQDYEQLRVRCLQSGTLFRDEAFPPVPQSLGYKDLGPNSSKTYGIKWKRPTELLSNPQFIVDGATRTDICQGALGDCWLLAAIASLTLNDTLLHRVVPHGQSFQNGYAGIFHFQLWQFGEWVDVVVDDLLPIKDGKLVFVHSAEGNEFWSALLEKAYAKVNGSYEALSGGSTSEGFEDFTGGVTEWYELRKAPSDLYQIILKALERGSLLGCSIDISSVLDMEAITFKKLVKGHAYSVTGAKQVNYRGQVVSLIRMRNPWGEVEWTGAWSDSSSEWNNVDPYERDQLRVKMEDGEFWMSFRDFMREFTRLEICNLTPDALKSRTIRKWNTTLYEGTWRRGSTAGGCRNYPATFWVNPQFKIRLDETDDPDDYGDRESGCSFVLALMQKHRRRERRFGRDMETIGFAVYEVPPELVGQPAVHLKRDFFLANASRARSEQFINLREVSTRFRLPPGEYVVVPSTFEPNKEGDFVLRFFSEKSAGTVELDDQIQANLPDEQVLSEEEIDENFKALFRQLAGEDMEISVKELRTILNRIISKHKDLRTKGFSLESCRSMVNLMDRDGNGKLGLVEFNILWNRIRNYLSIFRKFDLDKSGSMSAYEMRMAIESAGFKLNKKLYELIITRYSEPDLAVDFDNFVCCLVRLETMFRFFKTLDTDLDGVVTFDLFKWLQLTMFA
T1 sequence (P04632 1-268 partner): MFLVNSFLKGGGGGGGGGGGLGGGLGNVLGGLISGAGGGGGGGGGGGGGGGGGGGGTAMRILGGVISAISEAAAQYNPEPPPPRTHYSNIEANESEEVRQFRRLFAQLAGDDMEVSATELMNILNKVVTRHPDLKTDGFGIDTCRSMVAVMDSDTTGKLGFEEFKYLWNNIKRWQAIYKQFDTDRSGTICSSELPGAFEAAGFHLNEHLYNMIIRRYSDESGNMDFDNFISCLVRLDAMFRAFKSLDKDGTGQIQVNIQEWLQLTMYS
The test can be described thus: Inhibition of calpain I activity (Succ-Leu-Tyr-MNA substrate hydrolysis, fluorescence). The test is classed as biochemical. The method, then:
To evaluate inhibitory activity, stock solutions (40 times concentrated) of each compound to be tested were prepared in 100% anhydrous DMSO and […] of each inhibitor preparation were aliquoted into each of three wells of a 96-well plate. Calpain I, prepared by a modification of the method of W. J. Lee et al. (Biochem. […] To start the reaction, […] of 50 mM CaCl2 in assay buffer was added to each of the wells of the plate, excepting three, which were used as background signal baseline controls. Substrate hydrolysis was monitored every 5 minutes for a total of 30 minutes using a Fluoroskan II fluorescence plate reader. […] Inhibition of calpain I activity was calculated as the percent decrease in the rate of substrate hydrolysis in the presence of inhibitor relative to the rate in its absence. Comparison between the inhibited and control rates was made within the linear range for substrate hydrolysis. For screening, compounds were tested at […]. […] The results were plotted as percent inhibition versus log inhibitor concentration, and the IC50 was calculated from linear regression of the data.

[1] abbreviates: Table VI, calpain I, 0.2 mM Succ-Leu-Tyr-MNA, pH 7.5, read-out: IC50.

As usually defined, the IC50 is the midpoint of a concentration-inhibition curve. With `O=C[C@H](Cc1ccccc1)NC(=O)C1=Nc2cc3c(cc2S(=O)(=O)N1)OCCO3` [Cpd 42b, N-(2H-6,7-Ethylenedioxy-1,2,4-benzothiadiazine-3-carbonyl)-L-phenylalaninal1,1-dioxide], under setting [1], the IC50 amounted to 28 nM. Same read-out and setting: the result for `CCCCNC(=O)C(=O)[C@H](Cc1ccccc1)NC(=O)C1=Nc2ccccc2S(=O)(=O)N1` [Cpd 42c, 3-((2H-1,2,4-Benzothiadiazine-3-carbonyl)amino)-3-(S)-benzyl-2-oxo-N-butylpropanamide 1,1-dioxide] reads ~5000 nM; that for `CCCCNC(=O)C(=O)[C@H](Cc1ccccc1)NC(=O)C1=Nc2cc3c(cc2S(=O)(=O)N1)OCCO3` [Cpd 42d, 3-((2H-6,7-Ethylenedioxy-1,2,4-benzothiadiazine-3-carbonyl)amino)-3-(S)-benzyl-2-oxo-N-butylpropanamide 1,1-dioxide], ~10000 nM.

As for `CCN1C(C(=O)N[C@@H](Cc2ccccc2)C(O)S(=O)(=O)O)Cc2cc3c(cc2S1(=O)=O)OCCO3` (stereo partly drawn) [Example 187, N-(3,4-Dihydro-6,7-ethylenedioxy-2-ethyl-2H-1,2-benzothiazine-3-carbonyl)-L-phenylalaninal 1,1-dioxide, bisulfite addition compound], the IC50 (Example 187, in text, bisulfite addition compound, read-out: IC50 (calpain)) worked out at 8 nM.
